Experimental data from patent US6737383B1, “Herbicidal oxadiazolidines” (priority 1999, dated 2004).

What was measured:
bedstraw = assay: Test B pre/postemergence bedstraw; format: in vivo, Galium aparine; conditions: Postemergence, Rate 125 g/ha; scale of 0 to 10 where 0 is no effect and 10 is complete control
Summary of the method: (§1)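 Response is a visual 0-to-10 score relative to untreated plants, where 0 means no effect and 10 means complete control, taken twelve to sixteen days after application. Treatments went onto soil at planting and onto foliage of 1- to 4-leaf plants, using a surfactant-containing non-phytotoxic solvent.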

blackgrass = assay: Test B pre/postemergence blackgrass; format: in vivo, Alopecurus myosuroides
Summary of the method: as §1

giant foxtail = assay: Test B pre/postemergence giant foxtail; format: in vivo, Setaria faberii
Summary of the method: as §1

morningglory = assay: Test B pre/postemergence morningglory; format: in vivo, Ipomoea hederacea
Summary of the method: as §1

pigweed = assay: Test B pre/postemergence pigweed; format: in vivo, Amaranthus retroflexus
Summary of the method: as §1

rape = assay: Test B pre/postemergence rape; format: in vivo, Brassica napus
Summary of the method: as §1

soybean = assay: Test B pre/postemergence soybean; format: in vivo, Glycine max
Summary of the method: as §1

sugar beet = assay: Test B pre/postemergence sugar beet; format: in vivo, Beta vulgaris
Summary of the method: as §1

velvetleaf = assay: Test B pre/postemergence velvetleaf; format: in vivo, Abutilon theophrasti
Summary of the method: as §1

wheat = assay: Test B pre/postemergence wheat; format: in vivo, Triticum aestivum
Summary of the method: as §1

wild oat = assay: Test B pre/postemergence wild oat; format: in vivo, Avena fatua
Summary of the method: as §1

purple nutsedge = assay: Test B pre/postemergence purple nutsedge; format: in vivo, Cyperus rotundus
Summary of the method: as §1

rice = assay: Test B flood test rice; format: in vivo, Oryza sativa
Summary of the method: (§2)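 Read-out is a visual response score from 0 (no effect) to 10 (complete control), assigned by comparison with untreated controls. Treatment was applied at the 2-leaf stage, and plants stayed in the greenhouse for twelve to sixteen days before scoring.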

smallflower flatsedge = assay: Test B flood test smallflower flatsedge; format: in vivo, Cyperus difformis
Summary of the method: as §2

duck salad = assay: Test B flood test duck salad; format: in vivo, Heteranthera limosa
Summary of the method: as §2

bamyardgrass = assay: Test B flood test barnyardgrass; format: in vivo, Echinochloa crus-galli
Summary of the method: as §2

[1] = Postemergence, Rate 62 g/ha, scale 0 to 10, 0 is no effect, 10 is complete control
[2] = Postemergence, Rate 125 g/ha, scale of 0 to 10 where 0 is no effect and 10 is complete control
[3] = Postemergence, Rate 250 g/ha, scale of 0 to 10, 0 is no effect, 10 is complete control
[4] = Preemergence, Rate 62 g/ha, scale of 0 to 10 where 0 is no effect and 10 is complete control
[5] = Preemergence, Rate 125 g/ha, scale of 0 to 10 where 0 is no effect and 10 is complete control
[6] = Preemergence, Rate 250 g/ha, scale 0 to 10 (0 no effect, 10 complete control)
[7] = Preemergence, Rate 500 g/ha, scale of 0 to 10 where 0 is no effect and 10 is complete control
[8] = Rate 500 g/ha, Postemergence, scale 0 to 10, 0 is no effect, 10 is complete control
[9] = Rate 62 g/ha, flood test species, Pre-emergence, visual evaluation after twelve to sixteen days
[10] = Rate 125 g/ha, under heading Pre-emergence, flood test species, visual evaluation after twelve to sixteen days
[11] = Rate 250 g/ha, Pre-emergence (flood test species), scale 0 to 10, 0 is no effect, 10 is complete control
[12] = Rate 500 g/ha, Pre-emergence section of Table B, 0 to 10 scale (0 no effect, 10 complete control)

**Q.** What does the source list for `CC(C)N(C(=O)n1oc(=O)n(CCF)c1=O)c1ccc(Cl)cc1` [Compound 668]?
**A.** Bedstraw plant response rating (bedstraw): 0; Plant response rating, Blackgrass (blackgrass; [1]): 7; Blackgrass plant response rating (blackgrass; [2]): 8; Blackgrass plant response rating (blackgrass; [3]): 8; Blackgrass plant response rating (blackgrass; [4]): 6; Blackgrass plant response rating (blackgrass; [5]): 8; Plant response rating, Blackgrass (blackgrass; [6]): 10; Plant response rating, Blackgrass (blackgrass; [7]): 10; Blackgrass plant response rating (blackgrass; [8]): 9; Plant response rating, Giant foxtail (giant foxtail; [1]): 8; Giant foxtail plant response rating (giant foxtail; [2]): 9; Giant foxtail plant response rating (giant foxtail; [3]): 9; Giant foxtail plant response rating (giant foxtail; [4]): 9; Giant foxtail plant response rating (giant foxtail; [5]): 9; Plant response rating, Giant foxtail (giant foxtail; [6]): 9; Plant response rating, Giant foxtail (giant foxtail; [7]): 10; Giant foxtail plant response rating (giant foxtail; [8]): 9; Plant response rating, Morningglory (morningglory; [1]): 1; Morningglory plant response rating (morningglory; [2]): 3; Morningglory plant response rating (morningglory; [3]): 4; Morningglory plant response rating (morningglory; [4]): 0; Morningglory plant response rating (morningglory; [5]): 0; Plant response rating, Morningglory (morningglory; [6]): 0; Plant response rating, Morningglory (morningglory; [7]): 5; Morningglory plant response rating (morningglory; [8]): 4; Plant response rating, Redroot pigweed (pigweed; [1]): 3; Redroot pigweed plant response rating (pigweed; [2]): 5; Redroot pigweed plant response rating (pigweed; [4]): 0; Redroot pigweed plant response rating (pigweed; [5]): 7; Plant response rating, Redroot pigweed (pigweed; [6]): 10; Plant response rating, Redroot pigweed (pigweed; [7]): 10; Redroot pigweed plant response rating (pigweed; [8]): 7; Plant response rating, Rape (rape; [1]): 2; Rape plant response rating (rape; [2]): 3; Rape plant response rating (rape; [4]): 0; Rape plant response rating (rape; [5]): 5; Plant response rating, Rape (rape; [6]): 8; Plant response rating, Rape (rape; [7]): 9; Rape plant response rating (rape; [8]): 4; Plant response rating, Soybean (soybean; [1]): 2; Soybean plant response rating (soybean; [2]): 2; Soybean plant response rating (soybean; [4]): 0; Soybean plant response rating (soybean; [5]): 1; Plant response rating, Soybean (soybean; [6]): 1; Plant response rating, Soybean (soybean; [7]): 6; Soybean plant response rating (soybean; [8]): 6; Plant response rating, Sugarbeets (sugar beet; [1]): 0; Sugarbeets plant response rating (sugar beet; [2]): 0; Sugarbeets plant response rating (sugar beet; [4]): 0; Sugarbeets plant response rating (sugar beet; [5]): 6; Plant response rating, Sugarbeets (sugar beet; [6]): 6; Plant response rating, Sugarbeets (sugar beet; [7]): 9; Sugarbeets plant response rating (sugar beet; [8]): 6; Plant response rating, Velvetleaf (velvetleaf; [1]): 0; Velvetleaf plant response rating (velvetleaf; [2]): 0; Velvetleaf plant response rating (velvetleaf; [4]): 3; Velvetleaf plant response rating (velvetleaf; [5]): 6; Plant response rating, Velvetleaf (velvetleaf; [6]): 7; Plant response rating, Velvetleaf (velvetleaf; [7]): 8; Velvetleaf plant response rating (velvetleaf; [8]): 7; Plant response rating, Wheat (wheat; [1]): 0; Wheat plant response rating (wheat; [2]): 0; Wheat plant response rating (wheat; [4]): 0; Wheat plant response rating (wheat; [5]): 0; Plant response rating, Wheat (wheat; [6]): 5; Plant response rating, Wheat (wheat; [7]): 7; Wheat plant response rating (wheat; [8]): 0; Plant response rating, Wild oats (wild oat; [1]): 0; Wild oats plant response rating (wild oat; [2]): 0; Wild oats plant response rating (wild oat; [4]): 2; Wild oats plant response rating (wild oat; [5]): 7; Plant response rating, Wild oats (wild oat; [6]): 8; Plant response rating, Wild oats (wild oat; [7]): 9; Wild oats plant response rating (wild oat; [8]): 0; Plant response rating, Nutsedge (purple nutsedge; [1]): 0; Nutsedge plant response rating (purple nutsedge; [2]): 0; Nutsedge plant response rating (purple nutsedge; [4]): 0; Nutsedge plant response rating (purple nutsedge; [5]): 0; Plant response rating, Nutsedge (purple nutsedge; [6]): 0; Plant response rating, Nutsedge (purple nutsedge; [7]): 0; Nutsedge plant response rating (purple nutsedge; [8]): 0; Plant response rating, Rice (0 to 10 scale, 0 is no effect, 10 is complete control) (rice; [9]): 0; Rice plant response rating (0 to 10 scale, 0 is no effect, 10 is complete control) (rice; [10]): 0; Rice plant response rating (rice; [11]): 0; Rice plant response rating (rice; [12]): 0; Plant response rating, S. Flatsedge (0 to 10 scale, 0 is no effect, 10 is complete control) (smallflower flatsedge; [9]): 0; S. Flatsedge plant response rating (0 to 10 scale, 0 is no effect, 10 is complete control) (smallflower flatsedge; [10]): 0; S. Flatsedge plant response rating (smallflower flatsedge; [11]): 0; S. Flatsedge plant response rating (smallflower flatsedge; [12]): 0; Plant response rating, Ducksalad (0 to 10 scale, 0 is no effect, 10 is complete control) (duck salad; [9]): 0; Ducksalad plant response rating (0 to 10 scale, 0 is no effect, 10 is complete control) (duck salad; [10]): 0; Ducksalad plant response rating (duck salad; [11]): 0; Ducksalad plant response rating (duck salad; [12]): 0; Plant response rating, Barnyardgrass (0 to 10 scale, 0 is no effect, 10 is complete control) (bamyardgrass; [9]): 0; Barnyardgrass plant response rating (0 to 10 scale, 0 is no effect, 10 is complete control) (bamyardgrass; [10]): 0; Barnyardgrass plant response rating (bamyardgrass; [11]): 0; Barnyardgrass plant response rating (bamyardgrass; [12]): 0
